Some results are limits rather than exact numbers.

In the experiment the target is Receptor protein serine/threonine kinase (Danio rerio, UniProt B3DJG0). Description: Kinase assay Dorsalization.
Sequence of Receptor protein serine/threonine kinase (B3DJG0 whole entry): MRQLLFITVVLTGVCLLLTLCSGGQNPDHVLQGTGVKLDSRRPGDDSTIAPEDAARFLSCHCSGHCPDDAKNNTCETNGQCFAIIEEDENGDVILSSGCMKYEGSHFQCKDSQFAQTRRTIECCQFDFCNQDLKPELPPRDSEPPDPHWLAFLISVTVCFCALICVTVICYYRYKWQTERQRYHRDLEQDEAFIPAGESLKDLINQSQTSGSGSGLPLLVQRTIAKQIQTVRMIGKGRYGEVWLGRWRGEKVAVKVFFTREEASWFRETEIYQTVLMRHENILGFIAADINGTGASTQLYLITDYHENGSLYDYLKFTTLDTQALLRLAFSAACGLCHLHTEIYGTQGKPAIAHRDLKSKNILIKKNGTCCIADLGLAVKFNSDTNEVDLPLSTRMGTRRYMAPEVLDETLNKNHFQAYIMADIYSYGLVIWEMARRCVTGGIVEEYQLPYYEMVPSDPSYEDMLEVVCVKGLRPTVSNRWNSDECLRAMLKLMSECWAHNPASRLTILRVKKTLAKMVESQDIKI
For the compound `c1cc(-c2cnn3cc(-c4ccc(OCCN5CCOCC5)cc4)cnc23)ccn1`, the EC100 was determined as 1000 nM.

Consider `c1ccc2c(-c3cnn4cc(-c5ccc(OCCN6CCOCC6)cc5)cnc34)ccnc2c1` [4-(2-(4-(3-(quinolin-4-yl)pyrazolo[1,5-a]pyrimidin-6-yl)phenoxy)ethyl)morpholine], for which the EC100 was 100 nM.

In turn, `CC(C)Oc1ccc(-c2cnc3c(-c4ccnc5ccccc45)cnn3c2)cc1` [4-(6-(4-isopropoxyphenyl)pyrazolo[1,5-a]pyrimidin-3-yl)quinoline] showed an EC100 of 200 nM.

`CN(C)CCCOc1ccc(-c2cnc3c(-c4ccnc5ccccc45)cnn3c2)cc1` [DMH3] came in with an EC100 of 1000 nM.

As to `c1ccc2c(-c3cnn4cc(-c5ccc(N6CCNCC6)cc5)cnc34)ccnc2c1` [LDN-193189], the EC100 was 3000 nM.

With `COc1ccc(-c2cnc3c(-c4ccccc4)cnn3c2)cc1` [dorsomorphin (6LP)], the EC100 is > 50000 nM.

(Values after BindingDB's records for doi:10.1021/cb9002865 (Vanderbilt University, 2010).)
